# Reference: ChEMBL document CHEMBL1201862, “PubChem BioAssay data set” (2004)
#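 Dose response: 5 concentrations. Exposure: 48 h. Format: 96-well plates. Endpoint: linear interpolation; highest concentration if not reached. GI50 marks 50% less growth.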 Active and inactive are the calls of the source. Cut-off read from the data, not from the text of the source: active = GI50 up to about 1.1 µM and inactive = higher.
# Legend:
# Assay in all cases: growth of human tumour cells (NCI), 48 h
# CCRF-CEM = system: CCRF-CEM
# OVCAR-3 = system: OVCAR-3
# RXF 393 = system: RXF 393
# UACC-62 = system: UACC-62
# SK-MEL-5 = system: SK-MEL-5
# PC-3 = system: PC-3
# HCT-15 = system: HCT-15
# NCI-H522 = system: NCI-H522
# IGROV-1 = system: IGROV-1
# UACC-257 = system: UACC-257
# K562 = system: K562
# HOP-92 = system: HOP-92
# SR = system: SR
# MDA-MB-231 = system: MDA-MB-231
# MCF7 = system: MCF7
# ACHN = system: ACHN
# SNB-19 = system: SNB-19
# BT-549 = system: BT-549
# HL-60 = system: HL-60
# NCI/ADR-RES = system: NCI/ADR-RES
Structure (SMILES),GI50 (CCRF-CEM),GI50 (OVCAR-3),GI50 (RXF 393),GI50 (UACC-62),GI50 (SK-MEL-5),GI50 (PC-3),GI50 (HCT-15) [µM],GI50 (NCI-H522),GI50 (IGROV-1),GI50 (UACC-257),GI50 (K562),GI50 (HOP-92),GI50 (SR),GI50 (MDA-MB-231),GI50 (MCF7),GI50 (ACHN),GI50 (SNB-19),GI50 (BT-549),GI50 (HL-60),GI50 (NCI/ADR-RES)
CN(C)CC(CN(C)C)c1ccccn1,> 100 µM (inactive),> 100 µM (inactive),> 100 µM (inactive),> 100 µM (inactive),> 100 µM (inactive),> 100 µM (inactive),> 100,> 100 µM (inactive),> 100 µM (inactive),> 100 µM (inactive),> 100 µM (inactive),> 100 µM (inactive),> 100 µM (inactive),> 100 µM (inactive),> 100 µM (inactive),> 100 µM (inactive),> 100 µM (inactive),> 100 µM (inactive),> 100 µM (inactive),> 100 µM (inactive)
CCC(/C=C/c1ccccc1)=N\NC(=S)N/N=C(/C=C/c1ccccc1)CC,7.55 µM (inactive),22.9 µM (inactive),38.5 µM (inactive),54.8 µM (inactive),23 µM (inactive),72.9 µM (inactive),26.5,30.5 µM (inactive),55.8 µM (inactive),39.6 µM (inactive),19.6 µM (inactive),83.9 µM (inactive),16.9 µM (inactive),> 100 µM (inactive),41.8 µM (inactive),34.2 µM (inactive),63 µM (inactive),> 100 µM (inactive),19.6 µM (inactive),29.6 µM (inactive)
Cc1c(-c2ccccc2)[nH]c2ccc(Cl)cc2c1=O,55.8 µM (inactive),17.1 µM (inactive),20 µM (inactive),34.8 µM (inactive),13.3 µM (inactive),47.6 µM (inactive),28.7,21.3 µM (inactive),33.9 µM (inactive),27.8 µM (inactive),8.87 µM (inactive),20.4 µM (inactive),12.2 µM (inactive),19 µM (inactive),25.2 µM (inactive),29 µM (inactive),> 100 µM (inactive),62.2 µM (inactive),24.2 µM (inactive),29.5 µM (inactive)
O=C1Nc2ccc([N+](=O)[O-])cc2/C1=N/NC(=S)Nc1ccc([N+](=O)[O-])cc1,18.7 µM (inactive),22.9 µM (inactive),17.5 µM (inactive),21.1 µM (inactive),15.8 µM (inactive),24.2 µM (inactive),19,30.9 µM (inactive),17.7 µM (inactive),20.8 µM (inactive),34.2 µM (inactive),18.5 µM (inactive),30.2 µM (inactive),24.7 µM (inactive),25.4 µM (inactive),24.8 µM (inactive),26.2 µM (inactive),16.4 µM (inactive),26.7 µM (inactive),20.5 µM (inactive)
CC1(C)CCC(C)(C)c2cc(NC(=O)c3ccc(C(=O)O)cc3)ccc21 [TAMIBAROTENE],16.8 µM (inactive),22.4 µM (inactive),26.9 µM (inactive),16.5 µM (inactive),29.5 µM (inactive),25.8 µM (inactive),26.9,36.6 µM (inactive),34.8 µM (inactive),29.4 µM (inactive),54.7 µM (inactive),24.7 µM (inactive),> 69.8 µM (inactive),> 49.1 µM (inactive),28.9 µM (inactive),36.5 µM (inactive),32.8 µM (inactive),25.7 µM (inactive),44.5 µM (inactive),31.9 µM (inactive)
